Experiment [1] addresses T1, histamine H3 receptor (Cavia porcellus, UniProt Q9JI35).
T1 construct: the longitudinal muscle layer and adhering myenteric plexus was teased away; from tissue; host or cells: guinea pig ileum longitudinal muscle with adhering myenteric plexus (intact tissue strips)
In words: Guinea pig ileal longitudinal muscle, myenteric plexus functional assay (antagonism of R-(α)-methylhistamine inhibition of electrically-stimulated contraction). Format: cell-based. The note with it: guinea pig ileum; antagonist affinity from rightward shift of R-(α)-methylhistamine E/[A] curves (Schild); typical variance ±0.15 log units; read-out: pKB (functional assay) - ileum (converted). The procedure: The biological activity of the compounds of the examples was measured using the ileal longitudinal muscle, myenteric plexus assay described by Paton and Aboo Zar (J. Physiol. 1968, 194, 13-33). Male Dunkin-Hartley guinea pigs (250-300 g) were employed. Briefly, a 50 cm portion of ileum proximal to the caecum was removed, after discarding the terminal 20 cm. Ileal segments (3 cm) were cleaned by passing Krebs-Henseleit buffer containing 3 μM mepyramine gently through the ileum using a Pasteur pipette (size: 13.8 cm length, 0.65 cm diameter). To avoid unnecessary damage to the tissue, Krebs-Henseleit buffer was passed through the ileal segment, while it was lying horizontally on a petri dish. Therefore, the ileum was not over-distended and the buffer flowed through with ease. Each segment was then passed over a Pasteur pipette and the longitudinal muscle layer and adhering myenteric plexus was teased away using moist cotton wool, by stroking tangentially away from the mesenteric attachment. The tissues were suspended in 20 ml organ baths containing Krebs-Henseleit buffer at 37±1° C. and gassed with […]. The tissues were ligated to two parallel stainless steel wires, situated between two platinum electrodes (0.76 cm length, 0.06 cm diameter). All measurements were recorded isometrically (Grass FTO3 transducer). Following an initial loading tension of 1 g, the tissues were stimulated with electrical pulses at a frequency of 0.1 lHz and a pulse duration of 0.5 msec, as described by Kosterlitz & Watt (Br. J. Pharmacol. 1968, 266-276). Initially, the tissues were stimulated at supramaximal (1.3 fold times maximal) voltage for a period of 30 min and then the tissues were washed and re-stimulated.A "sighter dose" of the selective histamine H3 -receptor agonist, R-(α)-methylhistamine (0.3 μM) (Arrang el al. Nature, 1987, 117-123), was administered. Upon generation of response, the "sighter dose" was removed from the tissues by "washout" (6 washes over 60 min) and during this period the electrical stimulation was switched off. The tissues were then re-stimulated and allowed to stabilise prior to the addition of drug treatments, which were allocated on a randomised block basis to the organ baths. Following the incubation period, a single cumulative E/[A] curve was obtained. The experimental E/[A] curve data was expressed as the percentage inhibition of the peak height of electrically-stimulated contraction. Antagonist affinity values were calculated from the degree of rightward shift of the R-(α)-methylhistamine E/[A] curves using Schild's methods (Arunlakshana & Schild Br. J. Pharmacol, 1959, 48-58). Typical variance in this assay is ±0.15 log units.

The target of experiment [2] is T2, Histamine H3 receptor (guinea pig ileum longitudinal muscle myenteric plexus membranes) (Cavia porcellus, UniProt Q9JI35).
T2 construct: Guinea pig ileum longitudinal muscle myenteric plexus membranes; from tissue; host or cells: guinea pig ileum longitudinal muscle myenteric plexus membranes
T2 sequence (Q9JI35 whole entry): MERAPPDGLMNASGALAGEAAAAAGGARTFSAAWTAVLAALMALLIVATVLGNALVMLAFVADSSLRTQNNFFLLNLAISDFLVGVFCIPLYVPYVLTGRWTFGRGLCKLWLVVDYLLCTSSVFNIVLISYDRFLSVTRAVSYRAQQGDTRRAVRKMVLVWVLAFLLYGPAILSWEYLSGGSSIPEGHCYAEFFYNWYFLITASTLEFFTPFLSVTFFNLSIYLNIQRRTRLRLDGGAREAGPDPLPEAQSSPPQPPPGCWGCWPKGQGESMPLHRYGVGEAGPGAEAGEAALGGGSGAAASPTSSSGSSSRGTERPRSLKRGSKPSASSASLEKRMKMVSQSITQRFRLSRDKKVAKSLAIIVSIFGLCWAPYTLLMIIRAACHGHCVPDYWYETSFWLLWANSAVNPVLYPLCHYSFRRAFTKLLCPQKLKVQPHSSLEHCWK
In words: Histamine H3 radioligand binding assay - guinea pig ileum. The following applies: [3H]-R-α-methylhistamine (50 μl; 3 nM), 165 min, 21±3° C., pH7.4, typical variance ±0.12 log units, read-out: pKI (binding assay) - ileum (converted). The procedure:
Histamine H3 radioligand binding assay--guinea pig ileum
Male Dunkin Hartley guinea pigs (200-300 g) were used. The small intestine was rapidly removed (cut ^- 5 cm from caecum and 5 cm from stomach) and placed in ice-cold 20 mM Hepes-NaOH buffer (pH7.4 at 21±3° C.). The tissue was cut into ^- 10 cm segments, flushed through with ice-cold 20 mM Hepes-NaOH buffer and placed in a beaker containing fresh buffer at 4° C. 10 cm segments of ileum were threaded onto a glass pipette and the longitudinal muscle myenteric plexus was peeled away from the circular muscle using damp cotton-wool. Longitudinal muscle myenteric plexus was immediately placed in ice-cold Viaspan® solution (^~ 100 ml for tissue from 3 guinea pigs) and placed in the refrigerator for 24 hours.
Pre-soaked tissue was weighed and minced with scissors. The tissue was then homogenised in Viaspan® using a polytron (Kinematica AG; PT-DA 3020/2TS, 3×^- 1-2s). 50 ml of 500 mM Tris HCl (pH6.9 at 21±3° C.) was added to the tissue and the mixture centrifuged at 39,800×g for 12 min at 4° C. The supernatant was discarded and rehomogenised in 100 ml ice-cold 20 mM Hepes-NaOH buffer (pH7.4 at 21±3° C.) using a teflon-in-glass homogeniser (setting 10; 3×). The homogenate was recentrifuged at 39,800×g and the pellet resuspended in 20 mM Hepes-NaOH buffer (pH7.4 at 21±3° C.), to a tissue concentration of 50 mg.ml^-1, using a polytron (Brinkman, PT10, 3×^~1 s).
Guinea pig ileum longitudinal muscle myenteric plexus membranes (400 μl) were incubated for 165 min at 21±3° C. in a final volume of 500 μl with 20 mM Hepes-NaOH buffer containing [^3 H]-R-α-methylhistamine (50 μl; 3 nM) and competing compound. Total and non-specific binding of [^3 H]-R-α-methylhistamine were defined using 50 μl of buffer and 50 μl of 10 μM thioperamide, respectively. The assay was terminated by rapid filtration through Whatman GF/B filters, presoaked (2 hr) in 0.1% polyethyleneimine, using a Brandell Cell Harvester. The filters were washed (3×3 ml) with ice-cold 50 mM Tris-HCl (pH6.9 at 21±3° C.), transferred into scintillation vials, 5 ml liquid scintillation cocktail was added and after 4 hours the bound radioactivity was determined by counting (4 min) in a Beckman liquid scintillation counter.
(§1) Data are analysed using GraphPad prism and the general equation for a competition curve with variable Hill slope (nH). [formula] where
(§2) X is the log concentration of competing compound,
(§3) Y is the binding obtained at each concentration of X,
(§4) pIC50 is the […] required to compete for half of the specific binding.
The IC50 is converted to the KI using the Cheng Prusoff equation, […]
KD is the equilibrium dissociation constant for the radioligand determined by saturation experiments. […]

Experiment [3] concerns the target T3, Histamine H3 receptor (guinea pig cortex membranes) (Cavia porcellus, UniProt Q9JI35).
T3 construct: The cortex was dissected, weighed and homogenised; from tissue; host or cells: guinea pig cerebral cortex membranes
In words: Histamine H3 radioligand binding assay - guinea pig cortex. The note with it: [3H]-R-α-methylhistamine 0.1 nM final, typical variance ±0.12 log units, read-out: pKI (binding assay) - cortex (converted). As to the method:
as §1, §2, §3, §4
The IC50 is converted to the KI using the Cheng Prusoff equation,
IC50 is the concentration of competitor required to compete for half the specific binding,
L is the radioligand concentration used,
KD is the equilibrium dissociation constant for the radioligand determined by saturation experiments.
Histamine H3 radioligand binding assay--guinea pig cortex
Male Dunkin Hartley guinea pigs (200-300 g) were used. The whole brain was removed and immediately placed in ice-cold 20 mM Hepes-NaOH buffer (pH7.4 at 21±3° C.). The cortex was dissected, weighed and homogenised in ice-cold 20 mM Hepes-NaOH buffer (pH7.4 at 21±3° C.) (50 ml/guinea-pig cortex) using a polytron (Kinematica AG; PT-DA 3020/2TS, 3×3s). The homogenate was centrifuged at 100×g for 5 min and the supernatants pooled and stored at 4° C. The pellets were rehomogenised in fresh ice-cold buffer (80 ml) and recentrifuged (100×g for 5 min). The supernatants were pooled and pellets rehomogenised and recentrifuged (100×g for 5 min). All supernatants were pooled and centrifuged at 39,800×g for 12 min at 4° C. The final pellet was resuspended in 20 mM Hepes-NaOH buffer (pH7.4 at 21±3° C.) to a tissue concentration of 7.5 mg.ml^-1, using a teflon-in-glass homogeniser.
These were essentially identical to those used for the guinea pig ileum myenteric plexus assay described above, except that the final assay concentration of [^3 H]-R-α-methylhistamine was 0.1 nM. Typical variance in this assay is ±0.12 log units.

T1 sequence (Q9JI35 whole entry): as above
T3 sequence (Q9JI35 whole entry): as above

For the molecule `O=S1(=O)NC(Cc2ccc(Cl)cc2)CN1CCCCCc1c[nH]cn1` (centres unmarked) [Example 1, 4-(4-chlorophenyl)methyl-2-(5-(4-imidazolyl)pentyl)-1,2,5-thiadiazolidine-1,1-dioxide], in experiment [1], the Kb was 123 nM. The figures for the Ki in experiment [2] and in experiment [3] were 42.7 nM and 46.8 nM, respectively.
Consider `O=S1(=O)NCCN1CCc1c[nH]cn1` [Example 2, 2-(2-(4-imidazolyl)ethyl)-1,2,5-thiadiazolidine-1,1-dioxide], for which the Kb in experiment [1] was 240 nM. The Ki in experiment [3] was 4170 nM.
As to `O=S1(=O)NCCN1CCCc1c[nH]cn1` [Example 3, 2-(3-(4-imidazolyl)propyl)-1,2,5-thiadiazolidine-1,1-dioxide], the Kb in experiment [1] is 355 nM. Further, the Ki was 13.5 nM in experiment [2] and 2.57 nM in experiment [3].
Turning to `O=C1CNS(=O)(=O)N1CCCc1c[nH]cn1` [Example 4, 2-(3-(4-imidazolyl)propyl)-1,2,5-thiadiazolidin-3-one-1,1-dioxide], the Kb in experiment [1] is 1780 nM. Also, the Ki in experiment [3] was 115 nM.
Consider `O=S1(=O)N(CCCc2c[nH]cn2)CCN1Cc1ccccc1` [Example 5, 5-benzyl-2-(3-(4-imidazolyl)propyl)-1,2,5-thiadiazolidine-1,1-dioxide], for which the Kb in experiment [1] was over 10000 nM. The Ki in experiment [2] is 2950 nM; in experiment [3], 6310 nM.
For the molecule `C[C@H]1CN(CCc2c[nH]cn2)[S+]([O-])N1` (stereo partly drawn) [Example 6, 2-(4-imidazolyl)ethyl-4(S)-methyl-1,2,5-thiadiazolidine-1-oxide], the Kb in experiment [1] is 891 nM. Also, the Ki in experiment [2] is 1660 nM; in experiment [3] it was 43.7 nM.
For `O=C1C(Cc2ccc(Cl)cc2)NS(=O)(=O)N1CCCCc1c[nH]cn1` (centres unmarked) [Example 7, 2-(4-(4-imidazolyl)butyl)-4-(4-chlorophenyl)methyl-1,2,5-thiadiazolidin-3-one-1,1-dioxide], the Kb in experiment [1] was 44.7 nM. Moreover, in experiment [3], the Ki was 0.513 nM.
`O=C1CNS(=O)(=O)N1CCCCc1c[nH]cn1` [Example 8, 2-(4-(4-imidazolyl)butyl)-1,2,5-thiadiazolidin-3-one-1,1-dioxide]: in experiment [1], the Kb was 2400 nM. Besides, the Ki in experiment [3] is 501 nM.

Values taken from patent publication US6159994A, “Histamine H3 receptor ligands” (James Black Foundation, priority 1997, dated 2000).
